Common to all, as to format: cell-based
In test [1] the test system is Escherichia coli (E. coli—ATCC #8739). The test can be described thus: Synergy test, microtiter plate high resolution MIC assay, M9GY medium, bacterium. The following applies: for Qb: B alone where Qa = 0; for MIC: Escherichia coli, read-out: MIC of the component acting alone (QA or QB). The source says: (§1) One measure of synergism is the industrially accepted method described by Kull, F. C.; Eisman, P. C.; Sylwestrowicz, H. D. and Mayer, R. L., in Applied Microbiology 9:538-541 (1961), using the ratio determined by the formula: Qa/QA+Qb/QB=Synergy Index(“SI”) wherein: • QA=concentration of compound A (first component) in ppm, acting alone, which produced an end point (MIC of Compound A). • Qa=concentration of compound A in ppm, in the mixture, which produced an end point. • QB=concentration of compound B (second component) in ppm, acting alone, which produced an end point (MIC of Compound B). • Qb=concentration of compound B in ppm, in the mixture, which produced an end point.
(§2) When the sum of Qa/QA and Qb/QB is greater than one, antagonism is indicated. […] The lower the SI, the greater is the synergy shown by that particular mixture. The minimum inhibitory concentration (MIC) of a microbicide is the lowest concentration tested under a specific set of conditions that prevents the growth of the tested microorganisms.
(§3) Synergy tests were conducted using standard microtiter plate assays with media designed for optimal growth of the test microorganism. Minimal salt medium supplemented with 0.2% glucose and 0.1% yeast extract (M9GY medium) was used for testing bacteria; Potato Dextrose Broth (PDB medium) was used for testing yeast and mold. In this method, a wide range of combinations of microbicides and other personal care raw materials was tested by conducting high resolution MIC assays in the presence of various concentrations of CMIT/MIT, MIT, or BIT. High resolution MICs were determined by adding varying amounts of microbicide to one column of a microtitre plate and doing subsequent […] dilutions using an automated liquid handling system to obtain a series of endpoints ranging from 2 ppm to 10,000 ppm active ingredient.
(§4) The synergy of the combinations of the present invention was determined against a bacterium, Escherichia coli (E. coli—ATCC #8739), a yeast, Candida albicans (C. albicans—ATCC 10231), and a mold, Aspergillus niger (A. niger—ATCC 16404). The bacteria were used at a concentration of about 5×10^6 bacteria per mL and the yeast and mold at 5×10^5 fungi per mL. These microorganisms are representative of natural contaminants in many consumer and industrial applications. […] (yeast and mold) or 30° C. (bacteria).

For test [2], the system named is Candida albicans (C. albicans—ATCC 10231). The test can be described thus: Synergy test, microtiter plate high resolution MIC assay, PDB medium, yeast. As to conditions: for SI / Qb: C. albicans 10231 - PDB (6 days); for Qb: B alone where Qa = 0; for MIC: Candida albicans, read-out: MIC of the component acting alone (QA or QB).
Text: as §1, §2, §3, §4

Test [3] relates to Aspergillus niger (A. niger—ATCC 16404). In words: Synergy test, microtiter plate high resolution MIC assay, PDB medium, mold. As to conditions: for Qb: B alone where Qa = 0; for MIC: Aspergillus niger, read-out: MIC of the component acting alone (QA or QB).
Text: as §1, §2, §3, §4

[4] abbreviates: E. coli 8739 - M9GY (1 day), A = MIT, B = Lauric arginate.
[5] abbreviates: A. niger 16404 - PDB (10 days), A = MIT, B = Lauric arginate.
[6] abbreviates: E. coli 8739 - M9GY (6 days), A = MIT, B = Ethylhexylglycerin.
[7] abbreviates: A = MIT, B = Ethylhexylglycerin.
Where [8] appears, read: A. niger 16404 - PDB (10 days), A = MIT, B = Ethylhexylglycerin.
Where [9] appears, read: ATCC8739, 48 h, E. coli 8739, M9GY, 2 days, 30° C.
[10] abbreviates: ATCC16404, 72 h, A. niger 16404, PDB, 3 days, 25° C.
The mark [11] stands for this setting: E. coli 8739 - M9GY (1 day), A = BIT, B = Caprylic acid.
Setting [12] is: A. niger 16404 - PDB (3 days), A = BIT, B = Caprylic acid.

Where two headings read alike, the source gives them in different places.

On to `CCCCC(CC)COCC(O)CO` (stereo not shown) [Ehylhexylglycerin], for which the “MIC of the component acting alone (Qa or Qb with the other component at 0)” value in test [1] (E. coli 8739, M9GY, 2 days) was 3000 ppm; in test [2] (C. albicans 10231, PDB, 6 days), 10000 ppm; in test [3] (A. niger 16404, PDB, 3 days), 2000 ppm. The “SI (synergy index)” value in test [1] (E. coli 8739, M9GY, 2 days) is listed as 1.00; in test [2] (C. albicans 10231, PDB, 6 days), 1.00; in test [3] (A. niger 16404, PDB, 3 days) it was 1.00.
As to `CCCCCCCCCCCC(=O)N[C@@H](CCCNC(=N)N)C(=O)OCC.Cl` [Lauric arginate, N-α-lauoryl-L-arginine ethyl ester monohydrochloride], the “MIC of the component acting alone (Qa or Qb with the other component at 0)” value in test [1] (E. coli 8739, M9GY, 1 day) was 300 ppm; in test [2] (C. albicans 10231, PDB, 6 days) it was 200 ppm; in test [3] (A. niger 16404, PDB, 3 days), 2000 ppm. In addition, the “SI (synergy index)” value turned out to be 1.00 in test [1] (E. coli 8739, M9GY, 1 day); 1.00 in test [2] (C. albicans 10231, PDB, 6 days); 1.00 in test [3] (A. niger 16404, PDB, 3 days). Further, the “Synergy Index (SI) = Qa/QA+Qb/QB” value in test [1] (E. coli 8739, M9GY, 1 day) is 1.00; in test [2] (C. albicans 10231, PDB, 1 day), 1.00; in test [3] (A. niger 16404, PDB, 4 days), 1.00. The “MIC of the component acting alone (QA or QB)” value in test [1] (E. coli 8739, M9GY, 1 day, 30° C.) stood at 200 ppm; in test [2] (C. albicans 10231, PDB, 1 day, 25° C.), 800 ppm; in test [3] (A. niger 16404, PDB, 4 days, 25° C.), 2000 ppm. Besides, the SI in test [1] (setting [4]) amounted to 1.00; in test [2] (A = MIT, B = Lauric arginate), 1.00; in test [3] (setting [5]) it was 1.00. Besides, the Qb in test [1] (setting [4]) is 300 ppm; in test [2] (A = MIT, B = Lauric arginate), 800 ppm; in test [3] (setting [5]) it was 2000 ppm.
As for `CCCCC(CC)COCC(O)CO` (stereo not shown) [Ethylhexylglycerin, 3-[(2-ethylhexyl)oxy]-1,2propanediol], the “Synergy Index (SI) = Qa/QA+Qb/QB” value in test [1] (E. coli 8739, M9GY, 1 day) is listed as 1.00; in test [2] (C. albicans 10231, PDB, 1 day), 1.00; in test [3] (A. niger 16404, PDB, 3 days), 1.00. Moreover, the SI in test [1] (setting [6]), in test [2] (setting [7]) and in test [3] (setting [8]) was 1.00 each time. Besides, the Qb in test [1] (setting [6]) is 3000 ppm; in test [2] (setting [7]) it was 2000 ppm; in test [3] (setting [8]), 2000 ppm. The MIC in test [1] (ATCC8739, 24 h) was determined as 3000 µg/mL; in test [2] (ATCC10231, 24 h) it was 2000 µg/mL; in test [3] (ATCC16404, 72 h), 2000 µg/mL.
On to `CCCCCCC(O)CO` (stereo not shown) [Caprylyl glycol, 1,2-octanediol], for which the “Synergy Index (SI) = Qa/QA+Qb/QB” value in test [1] (E. coli 8739, M9GY, 2 days) was 1.00; in test [2] (C. albicans 10231, PDB, 1 day), 1.00; in test [3] (A. niger 16404, PDB, 3 days), 1.00. Moreover, the MIC is 2000 µg/mL in test [1] (setting [9]); 3000 µg/mL in test [2] (ATCC10231, 24 h, C. albicans 10231, PDB, 1 day, 25° C.); 3000 µg/mL in test [3] (setting [10]).
As for `CCCCCCCC(=O)O` [Caprylic acid, octanoic acid], the “Synergy Index (SI) = Qa/QA+Qb/QB” value in test [1] (E. coli 8739, M9GY, 1 day) came to 1.00; in test [1] (E. coli 8739, M9GY, 2 days), 1.00; in test [2] (C. albicans 10231, PDB, 6 days), 1.00; in test [3] (A. niger 16404, PDB, 3 days) it was 1.00; in test [3] (A. niger 16404, PDB, 10 days), 1.00. Besides, the SI in test [1] (setting [11]) was found to be 1.00; in test [2] (A = BIT, B = Caprylic acid), 1.00; in test [3] (setting [12]), 1.00. The Qb in test [1] (setting [11]) stood at 8000 ppm; in test [2] (A = BIT, B = Caprylic acid), 2000 ppm; in test [3] (setting [12]) it was 2000 ppm. In addition, the MIC came out at 8000 µg/mL in test [1] (ATCC8739, 24 h, E. coli 8739, M9GY, 1 day, 30° C.); 8000 µg/mL in test [1] (setting [9]); 2000 µg/mL in test [2] (ATCC10231, 144 h, C. albicans 10231, PDB, 6 days, 25° C.); 2000 µg/mL in test [3] (setting [10]); 2000 µg/mL in test [3] (ATCC16404, 240 h, A. niger 16404, PDB, 10 days, 25° C.).
